Results from patent US20150210740A1, “PSEUDOURIDIMYCIN (PUM) AND ITS DERIVATIVES” (NEW-ANTI-INFECTIVES CONSORTIUM S.C.A.R.L., priority 2012, published 2015).
Values after ≈ are worked out from the molar mass of the structure shown. Where two headings read alike, the source gives them in different places.

How the values were obtained:
[1] = test system: NSO nuclear extract; experiment: RNAP inhibition, NSO nuclear extract; assay type: biochemical, mouse
[2] = target: B. subtilis β(Q469R) (Bacillus subtilis, UniProt P37870+P37871, Q469R); experiment: RNAP inhibition, rifampicin-resistant B. subtilis RNAP; assay type: biochemical
[3] = target: T1, E. coli RNAP (Escherichia coli, UniProt P0A8T7+P0A8V2); experiment: RNAP inhibition, E. coli RNAP; assay type: biochemical
T1 construct: an RNAP purified from either Escherichia coli (Sigma Aldrich) or Bacillus subtilis; purchased Sigma Aldrich; host or cells: Escherichia coli
Protocol: (§1) The effect of PUM on bacterial RNAP is measured using an RNAP purified from either Escherichia coli (Sigma Aldrich) or Bacillus subtilis as described by Qi and Hulett (Qi Y, Hulett F M., Mol. Microbiol. 1998, 28(6):1187-1197). The bacterial RNAPs are used at 1.1 mg/ml, while the RNAP from bacteriophage T7 (Promega Corporation) is used at 20 U/ml. The nuclear extracts from HeLa cells (Human cervix carcinoma fibroblast; Promega Corporation) or NSO cells (non IgG secreting mouse myeloma lymphoblast; prepared as described by Dignam J D, Lebovitz R M, Roeder R G., Nucleic Acids Res. 1983, 11(5):1475-89) are used at 18 mg/ml. The reaction mixtures (50 μl) contain 40 mM Tris-HCl (pH 7.9), 6 mM MgCl2, 2 mM spermidine, 10 mM NaCl, 10 mM DTT, 10 μg/ml bovine serum albumin, 100 μM ATP, CTP and GTP, 2 μM UTP, 0.5 μCi [α-^32P]UTP, PUM at the desired concentration, RNAP and template DNA. The templates used for the transcription are the plasmid pGEM3Z (20 nM; Promega Corporation) for the bacterial and phagic RNAPs, and DNA derived from calf thymus (20 μg/ml; Sigma Aldrich) for the eukaryotic polymerases. After 30 min. (bacterial and phagic RNAPs) or 60 min. at 37° C., the amount of radioactivity obtained after precipitation with trichloroacetic acid is measured as previously described (Mariani R, Granata G, Maffioli S I, Serina S, Brunati C, Sosio M, Marazzi A, Vannini A, Patel D, White R, Ciabatti R. Bioorg Med Chem Lett. 2005, 15(16):3748-3752).

[4] = test system: HeLa nuclear extract; experiment: RNAP inhibition, HeLa nuclear extract; assay type: biochemical, Human
[5] = target: T2, B. subtilis RNAP (Bacillus subtilis, UniProt P37870+P37871); experiment: RNAP inhibition, B. subtilis RNAP; assay type: biochemical
T2 construct: an RNAP purified from either Escherichia coli (Sigma Aldrich) or Bacillus subtilis; made in house; host or cells: Bacillus subtilis
Protocol: as §1

[6] = test system: Haemophilus influenzae L3296; experiment: Growth inhibition (MIC), Haemophilus influenzae; assay type: cell-based
[7] = test system: S. pyogenes C203; experiment: S. pyogenes peritonitis model in mice; assay type: in vivo, ICR female mice; conditions: for ED50: Streptococcus pyogenes
Protocol: ICR female mice (Harlan Italia) weighing 23-25 g are acclimated (23±2° C., humidity, 55±10% humidity) for one week before the experiment. The infection is induced by intraperitoneal injection of 4×10^3 CFU of S. pyogenes […] in 0.5 mL of saline containing 1% peptone. 48-72 h after infection, this inoculum leads to a mortality of at least 95% in untreated controls. Eight mice per group for each dose are treated with 0.25 mL of PUM prepared in 5% dextrose. Two different experiments were performed: in the first experiment, PUM is administered intravenously 10 min. after the infection and 6 hours later; in the second experiment, PUM is administered as a single intravenous or subcutaneous dose 10 min. after infection. The mortality of the animals is recorded daily. The ED50 (50% effective dose) and 95% confidence limits are calculated as described (Finney, D. J. 1952. The Spearman-Kärber method. P. 524-30. In D. J. Finney (ed.) Statistical method in biological assay. Charles Griffin & Company Limited, London) for surviving animals at day 7 at each dose.

[8] = test system: Streptococcus pneumoniae; experiment: Growth inhibition (MIC), Streptococcus pneumoniae; assay type: cell-based
Protocol: [Worded in the source for another organism; used here, by the source, with some conditions changed.] (§2) The antibacterial activity is determined by evaluating the effect on the growth kinetics as described (Holowachuka S, Bal'ab M, Buddington R., 2003, J. Microbiol. Meth. 55, 441-446). Micro-organisms are grown in either Todd Hewitt medium (Streptococcus pyogenes) or cation-adjusted Mueller Hinton Broth (S. aureus, E. faecium, M catarrhalis, E. coli, P. aeruginosa, S. maltophilia) on 96-well microtiter plates. Each bacterial strain is inoculated with 5×10^4 CFU/ml and incubated at 37° C. on the Synergy 2 reader (BioTek), and the optical density is monitored at 595 nm for 48 h.

[9] = test system: T3, bacterial RNAP; experiment: Inhibition of bacterial RNAP; assay type: biochemical; conditions: RNAP of both Gram-positive and Gram-negative bacteria; read-out: IC50 (concentration producing 50% inhibition of enzyme activity), bacterial RNAP
T3 construct: other: RNAP of both Gram-positive and

[10] = test system: Streptococcus pyogenes; experiment: Growth inhibition (MIC), Streptococcus pyogenes; assay type: cell-based; conditions: Streptococcus pyogenes L49
Protocol: as §2

[11] = target: T4, T7 RNAP (Escherichia phage T7, UniProt P00573); experiment: RNAP inhibition, T7 RNAP; assay type: biochemical, bacteriophage T7
T4 construct: purchased Promega Corporation
Protocol: as §1, with “The templates used for the transcription are the plasmid pGEM3Z (20 nM; Promega Corporation) for the bacterial and phagic RNAPs, and DNA derived from calf thymus (20 μg/ml; Sigma Aldrich) for the eukaryotic polymerases. After 30 min.” left out

[12] = test system: Moraxella catarrhalis L3294; experiment: Growth inhibition (MIC), Moraxella catarrhalis; assay type: cell-based
Protocol: as §2

[13] = test system: Neisseria meningitidis L1612; experiment: Growth inhibition (MIC), Neisseria meningitidis; assay type: cell-based
[14] = test system: Gram-positive and Gram-negative susceptible, resistant and multi-resistant pathogenic bacteria; experiment: Growth inhibition of pathogenic bacteria; assay type: cell-based; conditions: human serum 30%
Protocol: as §2

[15] = target: T5, bacterial RNAP (UniProt P0A8T7+P0A8V2); experiment: Inhibition of bacterial RNAP; assay type: biochemical; conditions: read-out: IC50, bacterial RNAP; reaction mixture used as is for the bioactivity tests
T5 construct: other: reaction mixture used as is for the bioactivity tests

T2 sequence (O35011 whole entry): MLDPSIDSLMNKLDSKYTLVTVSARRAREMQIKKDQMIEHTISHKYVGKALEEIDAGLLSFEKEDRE
T2 sequence (P37871 whole entry): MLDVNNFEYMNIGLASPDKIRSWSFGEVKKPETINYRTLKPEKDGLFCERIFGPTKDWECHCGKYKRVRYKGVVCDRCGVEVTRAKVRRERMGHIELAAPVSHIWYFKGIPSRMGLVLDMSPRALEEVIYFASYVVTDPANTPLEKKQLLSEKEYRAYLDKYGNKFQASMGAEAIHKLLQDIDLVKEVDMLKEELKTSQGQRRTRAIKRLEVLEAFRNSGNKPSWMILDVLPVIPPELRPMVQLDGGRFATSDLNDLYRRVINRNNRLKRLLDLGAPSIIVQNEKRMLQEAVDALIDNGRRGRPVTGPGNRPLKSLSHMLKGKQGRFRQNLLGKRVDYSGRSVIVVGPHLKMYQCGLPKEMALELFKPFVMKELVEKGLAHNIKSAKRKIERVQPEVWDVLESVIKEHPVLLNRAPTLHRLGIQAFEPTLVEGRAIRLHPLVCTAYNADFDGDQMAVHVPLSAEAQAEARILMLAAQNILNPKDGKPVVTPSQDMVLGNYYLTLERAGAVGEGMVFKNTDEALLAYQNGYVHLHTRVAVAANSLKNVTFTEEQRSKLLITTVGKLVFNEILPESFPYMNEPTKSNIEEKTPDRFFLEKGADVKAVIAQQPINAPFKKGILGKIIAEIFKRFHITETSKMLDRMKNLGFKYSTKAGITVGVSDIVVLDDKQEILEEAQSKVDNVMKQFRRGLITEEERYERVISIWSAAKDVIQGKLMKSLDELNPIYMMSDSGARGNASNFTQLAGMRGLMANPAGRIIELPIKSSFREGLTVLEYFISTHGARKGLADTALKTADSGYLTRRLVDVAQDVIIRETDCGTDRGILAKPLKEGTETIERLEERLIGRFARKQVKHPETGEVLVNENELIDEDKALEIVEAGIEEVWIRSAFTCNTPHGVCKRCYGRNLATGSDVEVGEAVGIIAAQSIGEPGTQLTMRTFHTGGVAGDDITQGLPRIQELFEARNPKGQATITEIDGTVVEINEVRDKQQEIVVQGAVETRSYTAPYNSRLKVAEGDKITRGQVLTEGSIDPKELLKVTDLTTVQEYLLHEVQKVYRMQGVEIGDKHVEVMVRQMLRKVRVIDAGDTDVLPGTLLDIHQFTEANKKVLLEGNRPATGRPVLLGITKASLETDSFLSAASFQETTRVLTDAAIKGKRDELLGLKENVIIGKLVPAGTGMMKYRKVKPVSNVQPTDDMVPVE
T2 sequence (P20429 whole entry, further chain): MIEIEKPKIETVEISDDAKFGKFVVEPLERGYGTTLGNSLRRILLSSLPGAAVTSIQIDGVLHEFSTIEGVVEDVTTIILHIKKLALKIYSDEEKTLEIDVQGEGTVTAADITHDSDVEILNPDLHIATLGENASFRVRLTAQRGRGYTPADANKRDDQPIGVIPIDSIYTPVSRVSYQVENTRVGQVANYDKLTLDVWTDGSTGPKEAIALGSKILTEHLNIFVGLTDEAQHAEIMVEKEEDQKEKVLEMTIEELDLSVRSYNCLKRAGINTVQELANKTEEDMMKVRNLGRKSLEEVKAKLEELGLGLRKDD
T2 sequence (P37870 whole entry): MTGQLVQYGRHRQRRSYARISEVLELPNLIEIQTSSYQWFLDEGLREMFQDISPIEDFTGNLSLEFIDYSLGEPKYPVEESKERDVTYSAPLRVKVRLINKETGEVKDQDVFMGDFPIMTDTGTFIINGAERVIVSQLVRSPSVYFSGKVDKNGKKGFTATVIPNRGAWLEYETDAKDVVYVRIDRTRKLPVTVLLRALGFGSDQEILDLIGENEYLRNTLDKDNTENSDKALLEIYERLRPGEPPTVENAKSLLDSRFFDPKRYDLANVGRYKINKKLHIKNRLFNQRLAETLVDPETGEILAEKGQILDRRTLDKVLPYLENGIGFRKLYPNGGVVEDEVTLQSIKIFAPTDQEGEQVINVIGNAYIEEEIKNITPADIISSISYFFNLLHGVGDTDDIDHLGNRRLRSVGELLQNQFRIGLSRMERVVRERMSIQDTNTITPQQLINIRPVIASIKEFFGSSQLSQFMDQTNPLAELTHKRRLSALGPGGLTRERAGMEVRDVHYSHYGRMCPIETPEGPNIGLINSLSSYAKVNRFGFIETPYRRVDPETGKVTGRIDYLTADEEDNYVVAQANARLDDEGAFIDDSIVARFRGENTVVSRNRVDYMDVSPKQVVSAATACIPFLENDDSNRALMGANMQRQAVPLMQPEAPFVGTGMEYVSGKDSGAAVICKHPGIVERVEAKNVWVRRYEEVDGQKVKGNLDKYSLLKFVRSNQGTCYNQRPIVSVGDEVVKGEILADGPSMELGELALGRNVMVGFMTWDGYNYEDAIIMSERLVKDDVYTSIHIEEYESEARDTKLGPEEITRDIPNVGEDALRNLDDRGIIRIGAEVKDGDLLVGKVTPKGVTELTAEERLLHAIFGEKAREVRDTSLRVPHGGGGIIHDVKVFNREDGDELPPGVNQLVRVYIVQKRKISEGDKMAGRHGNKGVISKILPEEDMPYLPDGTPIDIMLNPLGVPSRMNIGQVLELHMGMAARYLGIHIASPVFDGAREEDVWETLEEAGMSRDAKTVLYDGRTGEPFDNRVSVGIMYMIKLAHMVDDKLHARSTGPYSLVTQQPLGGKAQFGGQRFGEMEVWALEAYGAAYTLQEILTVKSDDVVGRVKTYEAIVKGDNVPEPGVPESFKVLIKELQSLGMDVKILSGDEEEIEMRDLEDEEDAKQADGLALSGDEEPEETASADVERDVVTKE
B. subtilis β(Q469R), sequence (P20429 whole entry): as the sequence (P20429 whole entry, further chain) above
B. subtilis β(Q469R), sequence (P37870 whole entry Q469R): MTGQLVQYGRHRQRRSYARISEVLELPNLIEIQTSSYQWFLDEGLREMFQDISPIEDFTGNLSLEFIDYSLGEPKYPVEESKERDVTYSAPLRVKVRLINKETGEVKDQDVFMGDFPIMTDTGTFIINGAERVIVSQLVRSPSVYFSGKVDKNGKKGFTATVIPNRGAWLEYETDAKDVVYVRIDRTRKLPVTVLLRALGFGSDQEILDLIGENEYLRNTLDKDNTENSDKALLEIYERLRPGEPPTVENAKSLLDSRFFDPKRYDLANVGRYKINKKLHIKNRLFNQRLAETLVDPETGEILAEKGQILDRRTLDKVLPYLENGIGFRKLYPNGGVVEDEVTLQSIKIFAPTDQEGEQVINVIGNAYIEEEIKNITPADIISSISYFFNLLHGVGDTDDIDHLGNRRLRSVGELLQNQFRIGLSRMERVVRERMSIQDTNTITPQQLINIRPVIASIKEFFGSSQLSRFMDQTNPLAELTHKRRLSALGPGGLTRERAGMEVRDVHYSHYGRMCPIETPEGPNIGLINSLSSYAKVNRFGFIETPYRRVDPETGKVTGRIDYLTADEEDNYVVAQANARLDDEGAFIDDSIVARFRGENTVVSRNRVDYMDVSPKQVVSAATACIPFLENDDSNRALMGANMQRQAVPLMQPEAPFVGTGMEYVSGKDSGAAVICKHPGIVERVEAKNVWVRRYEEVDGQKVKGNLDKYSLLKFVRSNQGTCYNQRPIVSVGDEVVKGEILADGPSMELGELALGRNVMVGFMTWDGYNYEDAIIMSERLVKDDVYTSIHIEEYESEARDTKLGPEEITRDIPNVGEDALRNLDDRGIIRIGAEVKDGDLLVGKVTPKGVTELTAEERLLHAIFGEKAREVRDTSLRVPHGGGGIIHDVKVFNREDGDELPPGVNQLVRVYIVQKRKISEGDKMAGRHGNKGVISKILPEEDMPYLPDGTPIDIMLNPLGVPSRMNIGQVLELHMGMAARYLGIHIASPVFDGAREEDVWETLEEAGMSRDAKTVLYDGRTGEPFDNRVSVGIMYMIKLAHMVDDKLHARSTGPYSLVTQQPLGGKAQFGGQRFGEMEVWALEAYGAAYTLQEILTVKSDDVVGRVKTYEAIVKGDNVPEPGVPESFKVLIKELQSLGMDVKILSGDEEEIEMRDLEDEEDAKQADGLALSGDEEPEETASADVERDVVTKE
B. subtilis β(Q469R), sequence (P37871 whole entry): as the sequence (P37871 whole entry) above
B. subtilis β(Q469R), sequence (O35011 whole entry, further chain): as the sequence (O35011 whole entry) above
T4 sequence (P00573 whole entry): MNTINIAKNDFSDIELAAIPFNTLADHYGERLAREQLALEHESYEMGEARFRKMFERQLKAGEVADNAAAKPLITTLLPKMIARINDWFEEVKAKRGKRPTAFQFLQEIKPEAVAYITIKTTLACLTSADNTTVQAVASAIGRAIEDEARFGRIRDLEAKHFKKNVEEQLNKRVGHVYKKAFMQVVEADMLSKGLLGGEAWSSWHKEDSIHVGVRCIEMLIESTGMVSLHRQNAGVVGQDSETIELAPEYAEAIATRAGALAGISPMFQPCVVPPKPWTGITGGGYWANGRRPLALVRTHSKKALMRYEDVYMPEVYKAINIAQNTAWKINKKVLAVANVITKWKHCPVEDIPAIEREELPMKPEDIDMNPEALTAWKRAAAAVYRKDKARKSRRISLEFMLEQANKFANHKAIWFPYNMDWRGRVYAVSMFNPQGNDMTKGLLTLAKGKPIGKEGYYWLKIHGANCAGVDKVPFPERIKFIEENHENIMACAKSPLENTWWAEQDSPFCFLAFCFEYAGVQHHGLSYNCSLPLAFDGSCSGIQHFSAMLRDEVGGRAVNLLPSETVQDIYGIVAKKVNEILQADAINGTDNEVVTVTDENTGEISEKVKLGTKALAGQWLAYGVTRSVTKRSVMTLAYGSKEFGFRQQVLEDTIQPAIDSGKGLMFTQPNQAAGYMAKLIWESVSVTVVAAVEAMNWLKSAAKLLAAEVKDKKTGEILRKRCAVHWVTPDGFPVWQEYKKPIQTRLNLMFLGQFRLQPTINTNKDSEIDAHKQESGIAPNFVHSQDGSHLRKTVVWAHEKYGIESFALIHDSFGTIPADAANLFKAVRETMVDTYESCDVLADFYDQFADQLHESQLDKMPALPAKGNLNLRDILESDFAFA

CCc1c(Cl)c(O)c(Cl)c(O)c1C(=O)O[C@H]1[C@H](O)[C@H](OC)[C@H](OC/C2=C\C=C\C[C@H](O)/C(C)=C/[C@H](CC)[C@@H](O[C@@H]3OC(C)(C)[C@@H](OC(=O)C(C)C)[C@H](O)[C@@H]3O)/C(C)=C/C(C)=C/C[C@@H]([C@@H](C)O)OC2=O)O[C@@H]1C [Fdx, fidaxomicin, reference compound]
IC50 [1]: 42000 nM | IC50 [2]: 700 nM | IC50 [3]: 5500 nM | IC50 [4]: > 92000 nM | IC50 [5]: 900 nM

N=C(N)NCC(=O)N(O)[C@@H](CCC(N)=O)C(=O)NC[C@H]1O[C@@H](c2c[nH]c(=O)[nH]c2=O)[C@H](O)[C@@H]1O [PUM, Pseudouridimycin]
MIC [6]: 0.8 µg/mL (≈ 1.64 µM) | IC50 [1]: 205000 nM | ED50 ([7]; C203, iv, iv: 10 min. and 6 h post-infection, survival at day 7): 10 mg/kg | ED50 ([7]; C203, iv, iv: 10 min. post-infection, survival at day 7): 20 mg/kg | ED50 ([7]; C203, murine model of Streptococcus peritonitis, regimen not given): 10 mg/kg | ED50 ([7]; C203, sc, sc: 10 min. post-infection, survival at day 7): 20 mg/kg | effectiveness after intravenous versus subcutaneous administration ([7]; murine Streptococcus peritonitis): comparable effectiveness | MIC ([8]; Streptococcus pneumoniae L44, human serum 30% present): 2 µg/mL | MIC ([8]; Streptococcus pneumoniae L44, human serum absent): 3 µg/mL | MIC ([8]; Streptococcus pneumoniae L899-Rif^R, human serum absent): 3 µg/mL | MIC ([8]; Streptococcus pneumoniae L1407-Azi^R, human serum absent): 3 µg/mL | MIC ([8]; Streptococcus pneumoniae L1542-Ami^REry^RCli^RGen^RTet^R, human serum absent): 3 µg/mL | MIC ([8]; Streptococcus pneumoniae L2868-8 MDR, human serum absent): 3 µg/mL | MIC ([8]; Streptococcus pneumoniae L3909-Pen^REry^RChl^RCtr^R, human serum absent): 2 µg/mL | MIC ([8]; Streptococcus pneumoniae ND061311-Pen^RAzi^R, human serum absent): 3 µg/mL | IC50 [2]: 100 nM | cross-resistance with rifampicin ([2]; RNAP inhibition, Table 1): without showing any cross-resistance with rifampicin | IC50 [9]: 300 to 400 nM | IC50 [3]: 300 nM | IC50 [4]: > 74000 nM | MIC ([10]; human serum 30% present): 2 µg/mL | MIC ([10]; human serum absent, read-out: MIC): 2 µg/mL | IC50 [5]: 400 nM | IC50 [11]: > 205000 nM | MIC [12]: 0.8 µg/mL | MIC [13]: 10 µg/mL (≈ 20.6 µM) | effect of human serum on antibacterial activity [14]: not affected by the presence of human serum

CO[C@H]1/C=C/O[C@@]2(C)Oc3c(C)c(O)c4c(O)c(c(/C=N/N5CCN(C)CC5)c(O)c4c3C2=O)NC(=O)/C(C)=C\C=C\[C@H](C)[C@H](O)[C@@H](C)[C@@H](O)[C@@H](C)[C@H](OC(C)=O)[C@@H]1C [Rif, rifampicin, reference compound]
IC50 [2]: > 121000 nM | IC50 [3]: 60 nM | IC50 [5]: 50 nM | IC50 [11]: > 121000 nM

N=C(N)NCC(=O)N(O)[C@@H](CCC(=O)NCc1ccccc1)C(=O)NC[C@H]1O[C@@H](c2c[nH]c(=O)[nH]c2=O)[C@H](O)[C@@H]1O [compound III, PUM benzylamide]
IC50 [15]: 4000 nM
